This series in a line: Evaluation of stability in liver microsome. The settings on record: mouse liver microsome 0.25 mg/mL, 1 μM test compound, 37° C. for 30 minutes. (Liver microsomes are a subcellular fraction often used to study metabolism.)
Protocol: Solutions of the test compounds in DMSO/acetonitrile (the final concentration of each test compound was 1 μM, the final concentration of DMSO was 0.01%, and the final concentration of acetonitrile was 1%) were individually added to a liver microsome mixture solution (mouse liver microsome with a final concentration of 0.25 mg/mL, a potassium phosphate buffer with a final concentration of 100 mM, and magnesium chloride with a final concentration of 3 mM), and each mixture was pre-incubated at 37° C. for 5 minutes. […] After incubation at 37° C. for 30 minutes, a double amount of ethanol was added thereto to terminate the reaction, thereby obtaining post-reaction samples. A double amount of ethanol was added to each of the remaining mixture solutions, and a NADPH-generating system was further added thereto, thereby obtaining pre-reaction samples. The pre-reaction samples and post-reaction samples were centrifuged at 2000×g, and their supernatant was filtered through a glass filter. Each filtrate was then introduced into LC-MS/MS, and MS/MS peaks of the test compounds were detected. From the ratio of the post-reaction MS/MS peak to the pre-reaction MS/MS peak of the test compounds, the percentage of the remaining test compounds (remaining %) was calculated.
Turning to `COCc1ccc(NC(=O)c2c(OC[C@@H](C)OC)n(C3(C)CC3)c3ncnc(N)c23)cc1` [Example 96, (R)-4-amino-N-(4-(methoxymethyl)phenyl)-6-(2-methoxypropoxy)-7-(1-methylcyclopropyl)-7H-pyrrolo[2,3-d]pyrimidine-5-carboxamide], the “Remaining (%)” value turned out to be 71%. On to `COCc1ccc(NC(=O)c2c(OC[C@@H]3CCCO3)n(C3(C)CC3)c3ncnc(N)c23)cc1` [Example 97, (S)-4-amino-N-(4-(methoxymethyl)phenyl)-7-(1-methylcyclopropyl)-6-((tetrahydrofuran-2-yl)methoxy)-7H-pyrrolo[2,3-d] pyrimidine-5-carboxamide], for which the “Remaining (%)” value is reported as 70%. In the case of `COCc1ccc(NC(=O)c2c(OCC(C)C)n(C3(C)CC3)c3ncnc(N)c23)cc1` [Example 99, 4-amino-6-isobutoxy-N-(4-(methoxymethyl)phenyl)-7-(1-methylcyclopropyl)-7H-pyrrolo[2,3-d]pyrimidine-5-carboxamide] it was 51%. Regarding `COCc1ccc(NC(=O)c2c(OCC(C)OC)n(C3(C)CC3)c3ncnc(N)c23)cc1` (stereo not drawn) [Example 100, 4-amino-N-(4(methoxymethyl)phenyl)-6-(2-methoxypropoxy)-7-(1-methylcyclopropyl)-7H-pyrrolo[2,3-d]pyrimidine-5-carboxamide], the “Remaining (%)” value came to 76%.

On to `COCc1ccc(NC(=O)c2c(OCC3CCOC3)n(C3(C)CC3)c3ncnc(N)c23)cc1` (stereo not drawn) [Example 101, 4-amino-N-(4-(methoxymethyl)phenyl)-7-(1methylcyclopropyl)-6-((tetrahydrofuran-3-yl)methoxy)-7H-pyrrolo[2,3-d]pyrimidine-5-carboxamide], for which the “Remaining (%)” value is reported as 68%. `COCc1ccc(NC(=O)c2c(OCC3CCCCO3)n(C3(C)CC3)c3ncnc(N)c23)cc1` (stereo not drawn) [Example 102, 4-amino-N-(4-(methoxymethyl)phenyl)-7-(1-methylcyclopropyl)-6-((tetrahydro-2H-pyran-2-yl)methoxy)-7H-pyrrolo[2,3-d]pyrimidine-5-carboxamide]: the “Remaining (%)” value came out at 60%. Regarding `COCc1ccc(NC(=O)c2c(C#CCC3(O)CCC3)n(C3(C)CC3)c3ncnc(N)c23)cc1` [Example 103, 4-amino-6-(3-(1-hydroxycyclobutyl)prop-1-yn-1-yl)-N-(4-(methoxymethyl)phenyl)-7-(1-methylcyclopropyl)-7H-pyrrolo[2,3-d]pyrimidine-5-carboxamide], the “Remaining (%)” value came out at 60%.

`COCc1ccc(NC(=O)c2c(C#CC(O)C3CC3)n(C3(C)CC3)c3ncnc(N)c23)cc1` (stereo not drawn) [Example 104, 4-amino-6-(3-cyclopropyl-3-hydroxyprop-1-yn-1-yl)-N-(4-(methoxymethyl)phenyl)-7-(1-methylcyclopropyl)-7H-pyrrolo[2,3-d]pyrimidine-5-carboxamide]: the “Remaining (%)” value is reported as 52%.

For `COCc1ccc(NC(=O)c2c(C#CCN3CCCCC3)n(C3(C)CC3)c3ncnc(N)c23)cc1` [Example 105, 4-amino-N-[4-(methoxymethyl)phenyl]-7-(1-methylcyclopropyl)-6-(3-(piperidin-1-yl)prop-1-yn-1-yl)-7H-pyrrolo[2,3-d]pyrimidine-5-carboxamide], the “Remaining (%)” value is 52%. With `COCc1ccc(NC(=O)c2c(/C=C/CO)n(C3(C)CC3)c3ncnc(N)c23)cc1` [Example 109, (E)-4-amino-6-(3-hydroxyprop-1-en-1-yl)-N-(4-(methoxymethyl)phenyl)-7-(1-methylcyclopropyl)-7H-pyrrolo[2,3-d]pyrimidine-5-carboxamide] the figure was 68%.

For the molecule `COCc1ccc(NC(=O)c2c(C#Cc3ccccc3OC)n(C3(C)CC3)c3ncnc(N)c23)cc1` [Example 113, 4-amino-N-(4-(methoxymethyl)phenyl)-6-((2-methoxyphenyl)ethynyl)-7-(1-methylcyclopropyl)-7H-pyrrolo[2,3-d]pyrimidine-5-carboxamide], the “Remaining (%)” value was 79%. `CCn1nccc1C#Cc1c(C(=O)Nc2ccc(COC)cc2)c2c(N)ncnc2n1C1(C)CC1` [Example 114, 4-amino-6-((1-ethyl-1H-pyrazol-5-yl)ethynyl)-N-(4-(methoxymethyl)phenyl)-7-(1-methylcyclopropyl)-7H-pyrrolo[2,3-d]pyrimidine-5-carboxamide]: the “Remaining (%)” value stood at 55%. `CCOc1c(C(=O)Nc2ccc(-c3ccco3)cc2)c2c(N)ncnc2n1C1(C)CC1` [Example 116, 4-amino-6-ethoxy-N-(4-(furan-2-yl)phenyl)-7-(1-methylcyclopropyl)-7H-pyrrolo[2,3-d]pyrimidine-5-carboxamide]: the “Remaining (%)” value came to 55%.

Take `CCn1cc(C#Cc2c(C(=O)Nc3ccc(COC)cc3)c3c(N)ncnc3n2C2(C)CC2)cn1` [Example 118, 4-amino-6-((1-ethyl-1H-pyrazol-4-yl)ethynyl)-N-(4-(methoxymethyl)phenyl)-7-(1-methylcyclopropyl)-7H-pyrrolo[2,3-d]pyrimidine-5-carboxamide]: the “Remaining (%)” value was determined as 73%.

Take `COCc1ccc(NC(=O)c2c(C#Cc3cccs3)n(C3(C)CC3)c3ncnc(N)c23)cc1` [Example 119, 4-amino-N-(4-(methoxymethyl)phenyl)-7-(1-methylcyclopropyl)-6-(thiophen-2-ylethynyl)-7H-pyrrolo[2,3-d]pyrimidine-5-carboxamide]: the “Remaining (%)” value is reported as 70%. Turning to `COCc1ccc(NC(=O)c2c(C#Cc3ccc(Cl)nc3)n(C3(C)CC3)c3ncnc(N)c23)cc1` [Example 120, 4-amino-6-((6-chloropyridin-3-yl)ethynyl)-N-(4-(methoxymethyl)phenyl)-7-(1-methylcyclopropyl)-7H-pyrrolo[2,3-d]pyrimidine-5-carboxamide], the “Remaining (%)” value was determined as 72%. Regarding `COCc1ccc(NC(=O)c2c(C#Cc3c[nH]c4ccccc34)n(C3(C)CC3)c3ncnc(N)c23)cc1` [Example 121, 6-((1H-indol-3-yl)ethynyl)-4-amino-N-(4-(methoxymethyl)phenyl)-7-(1-methylcyclopropyl)-7H-pyrrolo[2,3-d]pyrimidine-5-carboxamide], the “Remaining (%)” value worked out at 74%. `COCc1ccc(NC(=O)c2c(C#Cc3cccc(NCc4ccncc4)c3)n(C3(C)CC3)c3ncnc(N)c23)cc1` [Example 122, 4-amino-N-(4-(methoxymethyl)phenyl)-7-(1-methylcyclopropyl)-6-((3-((pyridin-4-ylmethyl)amino)phenyl)ethynyl)-7H-pyrrolo[2,3-d]pyrimidine-5-carboxamide]: the “Remaining (%)” value was found to be 62%. As for `COCc1ccc(NC(=O)c2c(C#CCC3(O)COC3)n(C3(C)CC3)c3ncnc(N)c23)cc1` [Example 125, 4-amino-6-(3-(3-hydroxyoxetan-3-yl)prop-1-yn-1-yl)-N-(4-(methoxymethyl)phenyl)-7-(1-methylcyclopropyl)-7H-pyrrolo[2,3-d]pyrimidine-5-carboxamide], the “Remaining (%)” value amounted to 74%. `COCc1ccc(NC(=O)c2c(C#Cc3csc(C)n3)n(C3(C)CC3)c3ncnc(N)c23)cc1` [Example 126, 4-amino-N-(4-(methoxymethyl)phenyl)-7-(1-methylcyclopropyl)-6-((2-methylthiazol-4-yl)ethynyl)-7H-pyrrolo[2,3-d]pyrimidine-5-carboxamide]: the “Remaining (%)” value was found to be 69%.

For `CCOc1c(C(=O)Nc2ccc(COC)cc2)c2c(N)ncnc2n1C1(C)CC1` [Example 127, 4-amino-6-ethoxy-N-(4-(methoxymethyl)phenyl)-7-(1-methylcyclopropyl)-7H-pyrrolo[2,3-d]pyrimidine-5-carboxamide], the “Remaining (%)” value was found to be 70%.

The record behind these values is patent US10155768B2, “Fused pyrimidine compound or salt thereof” (TAIHO PHARMACEUTICAL CO., LTD., priority 2016, dated 2018).
